Source: patent US10954269B2, “Anti-inflammatory tripeptides” (Dr. August Wolff Gmbh & Co. KG Arzneimittel, priority 2013, dated 2021)

What was measured:
Conditions in all cases: substance 10^−9M
primary human T-cells = experiment: Cytokine secretion on protein level in activated primary human T-cells (13-plex FACS / Luminex, supernatant); type: cell-based
Protocol: (§1) Primary T-cells were isolated from peripheral blood from healthy volunteers and from secondary lymphatic organs from naïve C57BL/6 mice, respectively. The cells were stimulated with phorbol-12-myristate-13-acetate (PMA)/Ionomycin and interferon-gamma (IFN-γ), respectively, for 48 h to activate the cells. The activated cells release pro-inflammatory cytokines. In parallel a human (HaCaT) keratinocyte cell line was activated with PMA/Ionomycin and IFN-γ, respectively, too. […] At the same time release of anti-inflammatory IL-10 was inhibited. Two days after addition of PMA/Ionomycin and IFN-γ, respectively, the induction of IL-1 secretion was determined in the supernatant for proving that the cells are activated. […] The anti-inflammatory properties of the tripeptides were determined 48 h and 72 h following stimulation. A 13-plex-system based FACS analysis was used for showing the reduced secretion of pro-inflammatory cytokines in the supernatant. Data for IL-1, IL-2, IL-6, IL-12p70 IL-17, IFN-γ and TNF-α are considered to be most relevant. Thus, analysis of the anti-inflammatory properties of the tripeptides is preferably based on the results obtained for these analytes. […] Using this method the gene expression of pro-inflammatory markers like IL-6, IL-17, IFN-γ and TNF-α was determined.
(§2) In a third experiment murine and human T cells and HaCaT cells were stimulated with PMA/Ionomycin and treated with Examples 14, 15, 16 and 17 at 10^−7 M, 10^−9 M and 10^−11 M. Cytokine concentrations (IFN-γ, IL-17 and IL-10 for T cells and IFN-γ for HaCat) were assessed in the supernatants using the Luminex technology. Expression of genes coding for Il-1β, IL-6 and TNF-α was determined. […] Moreover, concentrations of pro-inflammatory cytokines IFN-γ and IL-17 was reduced in the supernatants whereas the concentration of anti-inflammatory cytokine IL-10 was increased. […]
(§3) For the biological assay two human cell lines of different origin were chosen to allow for translation of the results obtained. A HaCaT cell is a cell type belonging to an immortal human keratinocyte line used in scientific research. Its use in research allows for the characterization of human keratinocyte using a model that is reproducible and representing a human epithelial cell line. In contrast human T-lymphocytes (T-cells) are a type of lymphocyte (itself a type of white blood cell) that play a central role in cell-mediated inflammation/immunity.

[1] = system: human keratinocyte cell line (HaCaT); experiment: Cytokine secretion on protein level in activated human keratinocyte cell line HaCaT (13-plex FACS / Luminex, supernatant); type: cell-based
Protocol: as §1, §2, §3

primary murine T-cells = experiment: Cytokine secretion on protein level in activated primary murine T-cells (13-plex FACS / Luminex, supernatant); type: cell-based, C57BL/6 mice
Protocol: as §1
In a third experiment murine and human T cells and HaCaT cells were stimulated with PMA/Ionomycin and treated with Examples 14, 15, 16 and 17 at 10^−7 M, 10^−9 M and 10^−11 M. Cytokine concentrations (IFN-γ, IL-17 and IL-10 for T cells and IFN-γ for HaCat) were assessed in the supernatants using the Luminex technology. Expression of genes coding for Il-1β, IL-6 and TNF-α was determined. […] Moreover, concentrations of pro-inflammatory cytokines IFN-γ and IL-17 was reduced in the supernatants whereas the concentration of anti-inflammatory cytokine IL-10 was increased.
The anti-inflammatory and immunomodulatory effects of selected examples of the present invention were compared with common immunosuppressants. Thus, cells activated with PMA/Ionomycin and IFN-γ, respectively, were stimulated with MMF or dexamethasone. Following stimulation the secretion of pro-inflammatory cytokines was analyzed on protein and gene level (Table 9 and FIGS. 4-6).

[2] = primary human T-cells stimulated with IFN-γ
[3] = primary human T-cells stimulated with PBS
[4] = primary human T-cells stimulated with PMA/Ionomycin
[5] = HaCaT stimulated with PMA/Ionomycin
[6] = primary murine T-cells stimulated with IFN-γ
[7] = primary murine T-cells stimulated with PBS
[8] = primary murine T-cells stimulated with PMA/Ionomycin

Substance: H-(L)-Om-(L)-Pro-Aib-OH [Example 11]
- IL-1 cytokine concentration (primary human T-cells; [2]): 0 pg/mL
- IL-2 cytokine concentration (primary human T-cells; [2]): 212.98 pg/mL
- IL-4 cytokine concentration (primary human T-cells; [2]): 0 pg/mL
- IL-5 cytokine concentration (primary human T-cells; [2]): 83.3 pg/mL
- IL-6 cytokine concentration (primary human T-cells; [2]): 108.08 pg/mL
- IL-9 cytokine concentration (primary human T-cells; [2]): 8.15 pg/mL
- IL-10 cytokine concentration (primary human T-cells; [2]): 50.11 pg/mL
- IL-12p70 cytokine concentration (primary human T-cells; [2]): 0 pg/mL
- IL-13 cytokine concentration (primary human T-cells; [2]): 180.41 pg/mL
- IL-17 cytokine concentration (primary human T-cells; [2]): 0 pg/mL
- IL-22 cytokine concentration (primary human T-cells; [2]): 0 pg/mL
- TNF-α cytokine concentration (primary human T-cells; [2]): 52.55 pg/mL
- IL-1 cytokine concentration (primary human T-cells; [3]): 0 pg/mL
- IL-2 cytokine concentration (primary human T-cells; [3]): 0 pg/mL
- IL-4 cytokine concentration (primary human T-cells; [3]): 121.69 pg/mL
- IL-5 cytokine concentration (primary human T-cells; [3]): 0 pg/mL
- IL-6 cytokine concentration (primary human T-cells; [3]): 172.14 pg/mL
- IL-9 cytokine concentration (primary human T-cells; [3]): 10.84 pg/mL
- IL-10 cytokine concentration (primary human T-cells; [3]): 0 pg/mL
- IL-12p70 cytokine concentration (primary human T-cells; [3]): 0 pg/mL
- IL-13 cytokine concentration (primary human T-cells; [3]): 187.86 pg/mL
- IL-17 cytokine concentration (primary human T-cells; [3]): 0 pg/mL
- IL-22 cytokine concentration (primary human T-cells; [3]): 0 pg/mL
- INF-α cytokine concentration (primary human T-cells; [3]): 505.68 pg/mL
- TNF-α cytokine concentration (primary human T-cells; [3]): 52.55 pg/mL
- IL-1 cytokine concentration (primary human T-cells; [4]): 677.32 pg/mL
- IL-2 cytokine concentration (primary human T-cells; [4]): 3920.52 pg/mL
- IL-4 cytokine concentration (primary human T-cells; [4]): 112.94 pg/mL
- IL-5 cytokine concentration (primary human T-cells; [4]): 525.15 pg/mL
- IL-6 cytokine concentration (primary human T-cells; [4]): 1474.06 pg/mL
- IL-9 cytokine concentration (primary human T-cells; [4]): 380.3 pg/mL
- IL-10 cytokine concentration (primary human T-cells; [4]): 563.89 pg/mL
- IL-12p70 cytokine concentration (primary human T-cells; [4]): 0 pg/mL
- IL-13 cytokine concentration (primary human T-cells; [4]): 1258.74 pg/mL
- IL-17 cytokine concentration (primary human T-cells; [4]): 3306.09 pg/mL
- IL-22 cytokine concentration (primary human T-cells; [4]): 0 pg/mL
- INF-α cytokine concentration (primary human T-cells; [4]): 9554.27 pg/mL
- TNF-α cytokine concentration (primary human T-cells; [4]): 2209.22 pg/mL
- IL-1 cytokine concentration ([1]; HaCaT stimulated with IFN-γ): 31.54 pg/mL
- IL-2 cytokine concentration ([1]; HaCaT stimulated with IFN-γ): 0 pg/mL
- IL-4 cytokine concentration ([1]; HaCaT stimulated with IFN-γ): 0 pg/mL
- IL-5 cytokine concentration ([1]; HaCaT stimulated with IFN-γ): 0 pg/mL
- IL-6 cytokine concentration ([1]; HaCaT stimulated with IFN-γ): 265.29 pg/mL
- IL-9 cytokine concentration ([1]; HaCaT stimulated with IFN-γ): 0 pg/mL
- IL-10 cytokine concentration ([1]; HaCaT stimulated with IFN-γ): 0 pg/mL
- IL-12p70 cytokine concentration ([1]; HaCaT stimulated with IFN-γ): 0 pg/mL
- IL-13 cytokine concentration ([1]; HaCaT stimulated with IFN-γ): 989.21 pg/mL
- IL-17 cytokine concentration ([1]; HaCaT stimulated with IFN-γ): 0 pg/mL
- IL-22 cytokine concentration ([1]; HaCaT stimulated with IFN-γ): 0 pg/mL
- TNF-α cytokine concentration ([1]; HaCaT stimulated with IFN-γ): 0 pg/mL
- IFN-γ cytokine concentration ([1]; HaCaT stimulated with PBS): 0 pg/mL
- IL-1 cytokine concentration ([1]; HaCaT stimulated with PBS): 0 pg/mL
- IL-2 cytokine concentration ([1]; HaCaT stimulated with PBS): 0 pg/mL
- IL-4 cytokine concentration ([1]; HaCaT stimulated with PBS): 99.64 pg/mL
- IL-5 cytokine concentration ([1]; HaCaT stimulated with PBS): 0 pg/mL
- IL-6 cytokine concentration ([1]; HaCaT stimulated with PBS): 42.94 pg/mL
- IL-9 cytokine concentration ([1]; HaCaT stimulated with PBS): 1.97 pg/mL
- IL-10 cytokine concentration ([1]; HaCaT stimulated with PBS): 43.56 pg/mL
- IL-12p70 cytokine concentration ([1]; HaCaT stimulated with PBS): 0 pg/mL
- IL-13 cytokine concentration ([1]; HaCaT stimulated with PBS): 0 pg/mL
- IL-17 cytokine concentration ([1]; HaCaT stimulated with PBS): 0 pg/mL
- IL-22 cytokine concentration ([1]; HaCaT stimulated with PBS): 0 pg/mL
- TNF-α cytokine concentration ([1]; HaCaT stimulated with PBS): 0 pg/mL
- IFN-γ cytokine concentration [1, 5]: 57.58 pg/mL
- IL-1 cytokine concentration [1, 5]: 0 pg/mL
- IL-2 cytokine concentration [1, 5]: 19.32 pg/mL
- IL-4 cytokine concentration [1, 5]: 0 pg/mL
- IL-5 cytokine concentration [1, 5]: 0 pg/mL
- IL-6 cytokine concentration [1, 5]: 207.76 pg/mL
- IL-9 cytokine concentration [1, 5]: 0 pg/mL
- IL-10 cytokine concentration [1, 5]: 87.41 pg/mL
- IL-12p70 cytokine concentration [1, 5]: 0 pg/mL
- IL-13 cytokine concentration [1, 5]: 0 pg/mL
- IL-17 cytokine concentration [1, 5]: 0 pg/mL
- IL-22 cytokine concentration [1, 5]: 0 pg/mL
- TNF-α cytokine concentration [1, 5]: 0 pg/mL
- IL-1 cytokine concentration (primary murine T-cells; [6]): 100.08 pg/mL
- IL-2 cytokine concentration (primary murine T-cells; [6]): 208.9 pg/mL
- IL-4 cytokine concentration (primary murine T-cells; [6]): 53.65 pg/mL
- IL-5 cytokine concentration (primary murine T-cells; [6]): 531.87 pg/mL
- IL-6 cytokine concentration (primary murine T-cells; [6]): 193.06 pg/mL
- IL-10 cytokine concentration (primary murine T-cells; [6]): 1383.43 pg/mL
- IL-13 cytokine concentration (primary murine T-cells; [6]): 0 pg/mL
- IL-17 cytokine concentration (primary murine T-cells; [6]): 39.84 pg/mL
- IL-21 cytokine concentration (primary murine T-cells; [6]): 263.02 pg/mL
- IL-22 cytokine concentration (primary murine T-cells; [6]): 31.59 pg/mL
- IL-27 cytokine concentration (primary murine T-cells; [6]): 42.99 pg/mL
- TNF-α cytokine concentration (primary murine T-cells; [6]): 19.71 pg/mL
- IFN-γ cytokine concentration (primary murine T-cells; [7]): 8321.6 pg/mL
- IL-1 cytokine concentration (primary murine T-cells; [7]): 75.71 pg/mL
- IL-2 cytokine concentration (primary murine T-cells; [7]): 204.62 pg/mL
- IL-4 cytokine concentration (primary murine T-cells; [7]): 0 pg/mL
- IL-5 cytokine concentration (primary murine T-cells; [7]): 459.03 pg/mL
- IL-6 cytokine concentration (primary murine T-cells; [7]): 172.33 pg/mL
- IL-10 cytokine concentration (primary murine T-cells; [7]): 905.76 pg/mL
- IL-13 cytokine concentration (primary murine T-cells; [7]): 0 pg/mL
- IL-17 cytokine concentration (primary murine T-cells; [7]): 0 pg/mL
- IL-21 cytokine concentration (primary murine T-cells; [7]): 0 pg/mL
- IL-22 cytokine concentration (primary murine T-cells; [7]): 66.43 pg/mL
- IL-27 cytokine concentration (primary murine T-cells; [7]): 141.82 pg/mL
- TNF-α cytokine concentration (primary murine T-cells; [7]): 0 pg/mL
- IFN-γ cytokine concentration (primary murine T-cells; [8]): 2756.75 pg/mL
- IL-1 cytokine concentration (primary murine T-cells; [8]): 178.78 pg/mL
- IL-2 cytokine concentration (primary murine T-cells; [8]): 261.53 pg/mL
- IL-4 cytokine concentration (primary murine T-cells; [8]): 117.11 pg/mL
- IL-5 cytokine concentration (primary murine T-cells; [8]): 513.39 pg/mL
- IL-6 cytokine concentration (primary murine T-cells; [8]): 333.86 pg/mL
- IL-10 cytokine concentration (primary murine T-cells; [8]): 1302.16 pg/mL
- IL-13 cytokine concentration (primary murine T-cells; [8]): 0 pg/mL
- IL-17 cytokine concentration (primary murine T-cells; [8]): 244.88 pg/mL
- IL-21 cytokine concentration (primary murine T-cells; [8]): 0 pg/mL
- IL-22 cytokine concentration (primary murine T-cells; [8]): 94.31 pg/mL
- IL-27 cytokine concentration (primary murine T-cells; [8]): 99.05 pg/mL
- TNF-α cytokine concentration (primary murine T-cells; [8]): 86.61 pg/mL
